These results are taken from patent EP0719267B1, “SECOND MESSENGER CELL SIGNALING INHIBITORS” (CELL THERAPEUTICS, INC., priority 1993, dated 1994).

For data set [1], the system named is IL-2 (alpha chain CD25) receptor. The experiment in a line: IL-2 receptor expression on anti-CD3 stimulated splenocytes (flow cytometry). As to conditions: anti-CD3 1 µg/ml, 24 hours, 1 µM. The class given is cell-based, mouse. As for the experimental part: This investigation illustrates IL-2 (alpha chain CD25) receptor expression on mouse splenoyctes. The IL-2 receptor is not expressed on resting T-cells, but is rapidly-induced by certain stimulants, e.g. antigen recognition or treatment with ConA or antibodies to CD3 (anti-CD3). IL-2-dependent proliferation requires IL-2 receptor expression. […] 49 (1 µM). Following overnight incubation, the splenocytes were stained with a fluoresceinated anti-IL-2 receptor antibody and fluorescence measured by flow cytometry. Figures 5A and 5B are frequency histograms of measurements for 20,000 cells per sample.
In another assay, inventive compound no. […] Murine splenocytes were activated for 24 hours with anti-CD3 (1 µg/ml), stained with a fluorescent antibody to CD25 and analyzed by flow cytometry.

Data set [2] relates to murine splenocyte proliferation. The experiment in a line: Splenocyte (B cell) proliferation stimulated by anti-mu/anti-IgM and IL-4. As to conditions: Mus musculus, anti-IgM antibodies (10 µg/ml) and murine IL-4 (12.5 ng/ml). The class given is cell-based. On the procedure: This example illustrates inhibitive effects of compounds nos. 27 and 28 on murine splenocyte proliferation stimulated by anti-mu ([…]) and interleukin-4 (IL-4, 12.5 ng/ml). This in vitro assay, described above, is indicative of immune-suppressive/autoimmune treatment assay emphasizing humoral or B cell immune response. The inventive compound was added to the cells at the doses indicated two hours prior to activation with anti-mu and IL-4. Both compounds nos. 27 and 28 inhibited splenocyte proliferation in a dose-response manner. IC50 values for compounds nos. Background counts were less than 200 cpm.
In figure 57, results shown illustrate that inventive compound no. 45 inhibits B cell proliferation. Murine splenocytes were stimulated with anti-IgM antibodies (10 µg/ml) and murine IL-4 (12.5 ng/ml). Cells were pulsed with ^3HTdR at 44 hours, harvested 4 hours later, and the incorporation of ^3H-TdR was determined by liquid scintillation.

For data set [3], the system named is murine splenocytes. Briefly: Anti-CD3 priming followed by IL-2 restimulation of splenocytes. Type of data set: cell-based. As to conditions: 1 µM. On the procedure:
53A. […] The cells were pulsed with ^3H-TdR for 4 hours and harvested and incorporation of ^3H-TdR determined.

Data set [4] concerns murine splenocytes. Briefly: Splenocytes stimulated with anti-CD3 and anti-CD28 antibodies: proliferation and cytokine release. The class given is cell-based. From the text:
Figures 58A and 58B illustrate that inventive compound no. […] Murine splenocytes were stimulated with a mixture of anti-CD3 and anti-CD28 monoclonal antibodies. Inventive compound no.
Figures 58C and 58D illustrate that compound no. […] Procedurally, murine splenocytes were stimulated with a mixture of anti-CD3/CD28 antibodies. Inventive compound no. […] Addition of an anti-IL-2 receptor alpha subunit antibody and an anti-IL-2 receptor beta subunit antibody to the cultures inhibited both proliferation and the release of IFN-γ (figure 60D).

Data set [5] has as its system IL-2 receptor beta (p70) subunit. The experiment in a line: IL-2 receptor beta subunit internalization in CT-6.1 cells (flow cytometry). The class given is cell-based, murine. As to conditions: 20 ng/ml IL-2. On the procedure:
In figure 55, inventive compound no. […] In this assay protocol, CT-6.1 cells were starved overnight and stimulated with 20 ng/ml IL-2. At various times following IL-2 stimulation, cells were rapidly suspended in ice cold PBS and stained using a fluoresceinated monoclonal recognizing the beta subunit of the IL-2 receptor and cell surface expression analyzed by flow cytometry. Figure 55 is a plot of mean fluorescence versus time (in minutes) following IL-2 addition, illustrating that IL-2r beta subunit was rapidly internalized following IL-2 addition with cell surface expression remaining low for 6 hours. Inventive compound no.

The next data set has as its system 72 kD MMP. Briefly: Metalloproteinase production in TNF-α stimulated THP-1 cells (zymogram). As to conditions: 2.5 µM, TNF-α 18 hours. Type of data set: cell-based, human. On the procedure: (§1) Another assay measures an ability of the inventive compounds, as represented by compound no. 50, to inhibit metalloproteinase production in cancer cells. In the assay protocol, THP-1 human leukemia cells (1-2 x 10^6/35 mm dish) were plated in RPMI medium with 0.5% serum. Inventive compound no. 50 was added at 2.5 µM. Following incubation for 1 hour, TNF-α was added and incubated for 18 hours. The supernatants from control and treated plates were collected and protease activity was determined in gelatin gels (zymogram) after electrophoretic protein separation. […] The presence of compound no. […] Compound no. 50, representative of compounds of the invention, is capable of substantially reducing metastatic potential of cancer cells by blocking metalloprotease production.

Data set [6] relates to 92 kD matrix metalloprotease (MMP). The description is as above. The class given is cell-based, human. As to conditions: 2.5 µM, TNF-α 18 hours. As for the experimental part: as §1
The next data set concerns IL-2. Briefly: IL-2 production in thymocytes stimulated with ConA and IL-1 (ELISA). Type of data set: cell-based, murine. As to conditions: ConA and IL-1, 4 days. From the text:
Thymocytes were stimulated with ConA and IL-1 for 4 days with or without adding inventive compounds to the culture media. The supernatants were removed and assayed by ELISA for IL-2 levels by a commercially available kit.
(In an ELISA, binding on a coated surface is turned into a signal by an enzyme label.)

Another data set has as its system B16 melanoma cells. The experiment in a line: B16 melanoma in vivo study: bone marrow toxicity. Also on record: species or system mice. As to conditions: 10 mg/kg QD or 20 mg/kg QOC. On the procedure:
Figures 41A, 41B and 41C illustrates the results from an in vivo study in mice where B16 melanoma cells were injected intravenously through a tail vein on day 0 and compound no. 50 was administered inter parenterally at 10 mg/kg QD or 20 mg/kg QOC, starting days 1-14. The mice were sacrificed on day 15 and the lungs were dissected and fixed in formalin. In addition bone marrow toxicity was evaluated by measuring neutrophil and platelet counts in the mice on day 15.

The next data set has as its system Swiss/3T3 cells. Briefly: EGF-induced proliferation in Swiss/3T3 cells. The class given is cell-based. Particulars: 20 ng/ml EGF. On the procedure:
As illustrated in figures 67A and 67B, inventive compound no. 58 inhibited VEGF-induced proliferation in HUVEC and EGF-induced proliferation in Swiss/3T3 cells, respectively. Procedurally, HUVEC were placed in 0.5% serum containing medium prior to stimulation with various concentrations of VEGF, with or without inventive compound no. 58 (5 µM). Twenty four hours later the cells were pulsed with ^3H-TdR and 4 hours later harvested and counted by scintillation. The IC50 for inhibition was approximately 50-100 nM. Swiss 3T3 cells were stimulated with 20 ng/ml EGF and 24 hours later harvested and counted by scintillation.

The next data set concerns Balb/3T3 cells. The experiment in a line: Cytotoxicity to PDGF-stimulated Balb/3T3 cells (BCECF). The class given is cell-based. Particulars: fig. 66B.

SMILES strings stand for the structures.

By IC50 is commonly meant the point on the concentration scale where inhibition reaches its midpoint. Low values mean greater potency, high ones weaker potency.

Experimental for Balb/3T3 cells: LD50 values were determined using a cytotoxicity assay, as in Example 32. In these assays, Balb/3T3 cells, stimulated with PDGF and treated with one of the above inventive compounds in a manner identical to the tritiated thymidine procedure above, were incubated instead with a viable dye BCECF, a fluorescent dye. Fluorescence was measured using a fluorescent plate reader.

On to `CCCCCCCCNCC(O)CCCCCCCCCn1c(=O)c2c(ncn2C)n(C)c1=O` (stereo not drawn) [compound no. 45], for which the CD-25 receptor upregulation result in [1] is “did not inhibit CD-25 (p55) receptor upregulation by anti-CD3”. Moreover, in data set [2], the IC50 amounted to 1200 nM. Moreover, in the data set with murine splenocytes [3], the “proliferation of anti-CD3 primed splenocytes, compound present with IL-2” value was “proliferation was inhibited” and the “response to IL-2 after compound present during anti-CD3 incubation” value is “did not block the splenocyte's ability to respond to IL-2”. Besides, in the data set on murine splenocytes [4], the “CD28-mediated release of IL-2” value is “did not inhibit the CD28-mediated release of IL-2”, the T cell proliferation entry is reported as “inhibited T cell proliferation in this system” and the “release of IFN-γ” value is “inhibited release of IFN-γ”. For the same compound, the “IL-2 receptor beta subunit internalization” value in [5] is “did not inhibit this receptor internalization activity”.

Take `CCCCCCCCCCCCNCC(O)CCCCCCCCCn1c(=O)c2c(ncn2C)n(C)c1=O` (stereo not drawn) [compound no. 50, 1-(11-Dodecylamino-10-hydroxyundecyl)-3,7-dmethylxanthine]: in the data set on 72 kD MMP, the “TNF-α-stimulated expression of 72 kD MMP” value was “blocked the TNF-α-stimulated expression of both the 92 and 72 kD MMPs”. Also, in [6], the “TNF-α-stimulated expression of 92 kD MMP” value is “blocked the TNF-α-stimulated expression of both the 92 and 72 kD MMPs”. Moreover, the IL-2 production entry with IL-2 is recorded as “do not inhibit production of IL-2”. In addition, the “neutrophil and platelet counts” value in the data set with B16 melanoma cells (day 15) is listed as “increased counts over non-treated control animals”. Further, in the data set on B16 melanoma cells (days 1-14, day 15), the bone marrow toxicity entry was “not toxic to the bone marrow”.

In the data set on Swiss/3T3 cells, `COc1cc(CNCC(O)CCCCCCCCCn2c(=O)c3c(ncn3C)n(C)c2=O)cc(OC)c1OC` (stereo not drawn) [compound no. 58, 1-[11-(3,4,5-Trimethoxybenzylamino)-10-hydroxyundecyl]-3,7-dimethylxanthine] had an IC50 of around 20 nM. Also, the cytotoxicity result with Balb/3T3 cells is on record as “not cytotoxic to Balb/3T3 cells”.
